Earlier results in patent US10369185B2, “Methods and compositions for enhancement of ability to concentrate” (KYOWA HAKKO BIO CO., LTD., priority 2014, dated 2019).

Details: alanylglutamine compared to glutamine; cited from earlier work

NC(=O)CC[C@H](N)C(=O)O [glutamine, reference compound]
solubility in aqueous solutions: low-solubility
